Measurements taken from patent US6599499B1, “Uses of diterpenoid triepoxides as an anti-proliferative agent” (priority 1999, dated 2003).

Columns and labels:
[1] = system: A549 (non-small cell lung cancer) cells; assay: Cell viability by MTT assay, A549 cells; conditions: for Percent survival: MTT after 48 h
Method: (§1) Cell culture and luciferase assay. A549 (non-small cell lung cancer), HT-1080 (fibrosarcoma), and MCF-7 (breast cancer) cells were cultured in the appropriate media with 10% FCS supplemented with L-glutamine, penicillin, and streptomycin. p53 wild-type (+/+) and null (−/−) Mouse Embryonic Fibroblasts (MEFs) transfected with the E1A/Ras were grown in DMEM containing 15% FCS supplemented with L-glutamine, penicillin, and streptomycin. Transfections were done on MCF-7 cells using the lipofectamine Plus reagent. At 24 hours after transfection, MCF-7 cells were left untreated or treated with triptolide (20 ng/ml) or doxorubicin (100 nM) for 4, 8, and 16 hours and cells were collected for luciferase assay. Luciferase activity was measured in samples with equal protein concentration with a Luminometer (Analytical Luminescence Laboratory, San Diego, Calif.).
(§2) Cell viability assay. Cell viability was measured by an 3-(4,5-dimethylthiazol-2-yl)-2,5-diphenyltetrazolium bromide (MTT) assay as described above. Untreated or cells treated with triptolide and/or doxorubicin were harvested at the indicated times followed by the addition of MTT to the cells in a 96-well plate. Cells were solubilized with […] acidified with 0.1N HCl. The 96-plate was read at a wavelength of 590 nm on an iEMS Labsystems plate reader.

[2] = system: HT-1080 (fibrosarcoma) cells; assay: Cell viability by MTT assay, HT-1080 cells; conditions: for Percent survival: MTT after 48 h
Method: as §1, §2

[3] = system: p53-binding site in the mdm2 promoter; assay: mdm2 promoter-luciferase reporter (pBP100-GL2) in MCF-7 cells; format: cell-based, human
Text: Reagents. PG490 (triptolide, MW 360) was obtained from Pharmagenesis (Palo Alto, Calif.). A549 (non-small cell lung cancer) and HT1080 (fibrosarcoma) cell lines were from ATCC. MCF-7 (breast cancer) cell line was obtained from Dr. Ron Weigel (Stanford University). Mouse embryonic fibroblasts (p53+/+ and p53−/−) cell lines were provided by Dr. Amato J. Giaccia (Stanford University). […] The mdm2 promoter-luciferase construct pBP100-GL2 was provided by Dr.
Louis Noumovski (Stanford University) and was made by cloning the Bgl II-Hind III fragment from the pBP100CAT vector into the pGL2-Basic Vector (Promega, Madison, Wis.). MCF-7 cells were transfected using lipofectamine Plus reagent from the Life Technologies, Inc. Cells were collected and lysates were prepared according to the manufacturer's protocol for luciferase assay (Promega Corp., Madison, Wis.). Antibodies for p53, p21^WAF1/CIP1, Mdm2, Protein phosphatase-1 (PP-1), and Erk-2 were from Calbiochem, Inc (La Jolla, Calif.) and the rabbit polyclonal Bax antibody was from Upstate Biotechnology (Lake Placid, N.Y.).
Cell culture and luciferase assay.
In the experiments shown in FIG. 5, RT-PCR was performed using 2 μg of total RNAs extracted from MCF-7 cells. […] GADPH was used as a loading control. […]

p53 = p53 protein level by immunoblotting (Example 5); format: cell-based, human
Method: (§3) Immunoblotting. Cells were harvested at the conditions and times indicated and lysed using HNET buffer (50 mM HEPES, pH 7.5, 100 mM NaCl, 1 mM EGTA, and 1% Triton X-100) supplemented with 1 mM dithiothreitol, 1 mM phenylmethylsulfonyl fluoride, and protease inhibitors mixture (Roche Molecular Biochemicals). 100 μg of protein was loaded on 10% SDS-PAGE followed by transferring to polyvinylidene difluoride membrane. Immunoblotting was performed as described previously using a p53 mouse monoclonal antibody from Oncogene Research Products. […] Immunoblot analysis using other antibodies was performed as described above. The band intensity was measured by NIH Image 1.62.

p21 = p21 protein level by immunoblotting (Example 5); format: cell-based, human; conditions: for effect on p21 expression: p53 mutant HT29 colon cancer cell line
Method: as §3

HT1080 cells = assay: Cell cycle analysis by propidium iodide/FACS, HT1080 cells; format: cell-based, human; conditions: 16 h
Method: Cell Cycle Analysis. HT1080 cells ([…]) were treated with triptolide (20 ng/ml) and/or doxorubicin (100 nM) for 16 h. Cells were then harvested and washed with cold PBS. The cells were resuspended gently in 5 ml of 100% ethanol and fixed at 25° C. for 1 h. After washing with PBS, the cells were incubated with DNase-free RNase A (200 μg/ml) at 37 ° C. for 1 h and washed with PBS. Propidium iodide (10 μg/ml) was added, and the cells were incubated at 37° C. for 5 min. Cells were separated by sonicating at 20% output level for 15 s using a VirSonic 50 sonicator (Vitis Inc., NY). The samples were then sorted by FACS, and cell cycle analysis was done with FlowJo (version 3.0.3) (Tree Start, Inc, San Carlos, Calif.).

[4] = system: Dx5 MDR human tumor cells; assay: Nude mouse xenograft, established Dx5 MDR tumors; format: in vivo, nude mice
Method: Nude mouse xenograft model. Female NCr nude mice were purchased from Taconic, Germantown, N.Y., and were generally 20-24 grams when used. Mice were kept in autoclaved filter-top microisolator cages with autoclaved water and sterile food ad lib. The cages were maintained in an isolator unit providing filtered air (Lab Products, Inc., Maywood, N.J.). Tumor cells were grown and harvested as described above. NCr nude mice were injected intradermally with 5×10^6 tumor cells. In some experiments, treatment was initiated on the day of tumor cell implantation. […] Mice were treated IP daily for 5 days per week.
MDR is a factor in failing to achieve durable chemotherapeutic efficacy in the clinical setting. Using an MDR tumor cell line Dx5 the efficacy of PG490-88 was tested. Nude mice were implanted intradermally with Dx5 tumor cells, and treatment was initiated when the tumors reached approximately 100 mm^3.
The data in FIG. 4 represents the measurement of Dx5 tumor volume on day 14 after the initiation of treatment. Nude mice bearing xenografts of Dx5 MDR human tumor cells were treated daily as shown. The data represent the means and the standard errors of the means of the tumor volumes as percent of the day 0 tumor volumes for each animal measured day 3, 7, 10 and 14 days after the initiation of treatment. There were 5 mice in the groups receiving saline or PG490-88 plus doxorubicin, and 4 mice in the groups receiving PG490-88 or doxorubicin alone.

[5] = A549, Triptolide 5 ng/ml, Doxorubicin 100 nM, alone or combined
[6] = HT-1080, Triptolide 5 ng/ml, Doxorubicin 100 nM, alone or combined

**Q.** With `CC(C)[C@]12O[C@H]1[C@@H]1O[C@]13[C@]1(O[C@H]1C[C@H]1C4=C(CC[C@@]13C)C(=O)OC4)[C@@H]2O` [PG490, triptolide] as the molecule, how does the Percent survival [1, 5] read?
**A.** The Percent survival was 91.1 ± 3.8%.

**Q.** And the Percent survival ([1]; A549, Triptolide 20 ng/ml alone or with Doxorubicin 100 nM)?
**A.** The Percent survival was 64.0 ± 8.2%.

**Q.** And the “effect on cell death induced by carboplatinum” value ([1]; A549 cells)?
**A.** The value was “enhances cell death”.

**Q.** What about the Percent survival [2, 6] of the same molecule?
**A.** Its Percent survival is 90.4 ± 6.2%.

**Q.** And the Percent survival ([2]; HT-1080, Triptolide 20 ng/ml alone or with Doxorubicin 100 nM)?
**A.** The Percent survival was 26.0 ± 5.2%.

**Q.** What about the cytotoxicity at 0.02 µg/mL ([2]; Homo sapiens, HT-1080, read-out: decrease in cell viability) of the same molecule?
**A.** The cytotoxicity at 0.02 µg/mL was 74%.

**Q.** And the “decrease of transactivation of the reporter construct” value ([3]; MCF-7, triptolide 20 ng/ml)?
**A.** The value was “approximately 30%”.

**Q.** And the “increase in p53” value (p53; HT1080, triptolide 5 ng/ml)?
**A.** The value was 2.4 fold.

**Q.** What about the “increase in p53 steady-state protein levels” value (p53; HT1080, triptolide 20 ng/ml, 9 h) of the same molecule?
**A.** The value was 4 fold.

**Q.** What about the “reduction of basal p21 levels” value (p21; HT1080, triptolide 20 ng/ml) of the same molecule?
**A.** Its value is 50%.

**Q.** What about the “effect on CPT-11-mediated induction of p21” value (p21; HT1080 and A549 cells) of the same molecule?
**A.** Its value is “inhibits”.

**Q.** And the “effect on p21 expression” value (p21)?
**A.** The value was “did not affect”.

**Q.** And the “reduction of doxorubicin-mediated induction of p53” value (p21; triptolide 5 ng/ml)?
**A.** The value was 58%.

**Q.** And the “effect on doxorubicin-induced increase in p21” value (p21; triptolide 20 ng/ml)?
**A.** The value was “completely blocked”.

**Q.** And the “cells in S phase” value (HT1080 cells; HT1080, triptolide 20 ng/ml, 23.7% in unstimulated cells)?
**A.** Its value is 46%.

**Q.** `CC(C)[C@]12O[C@H]1[C@@H]1O[C@]13[C@]1(O[C@H]1C[C@H]1C4=C(CC[C@@]13C)C(=O)OC4)[C@@H]2OC(=O)CCC(=O)[O-].[Na+]` [PG490-88, 14-succinyl triptolide sodium salt] was tested. Which “growth of one tumor compared with its day 0 value” ([4]; PG490-88 0.75 mg/kg/day, one of four mice) did it give?
**A.** Its value is 2.8 fold.

**Q.** What about the “reduction of mean tumor size compared to day 0 values” ([4]; PG490-88 0.75 mg/kg/day, three of the four mice) of the same molecule?
**A.** The value was 28%.

**Q.** How did the “increase of mean tumor volume over 14 days” value ([4]; doxorubicin alone 2 mg/kg/day) turn out when `COc1cccc2c1C(=O)c1c(O)c3c(c(O)c1C2=O)C[C@@](O)(C(=O)CO)C[C@@H]3O[C@H]1C[C@H](N)[C@H](O)[C@H](C)O1` [doxorubicin, reference compound] was run?
**A.** The value was “more than 10 fold”.

**Q.** And the Percent survival [1, 5]?
**A.** The Percent survival was 85.7 ± 9.6%.

**Q.** And the cytotoxicity at 0.1 µM ([1]; Homo sapiens, A549, 48 h, read-out: decrease in cell viability, A549, triptolide 20 ng/ml, doxorubicin 100 nM, alone or combined, 48 hours)?
**A.** The cytotoxicity at 0.1 µM was 14.3%.

**Q.** And the Percent survival [2, 6]?
**A.** The Percent survival was 93.6 ± 4.3%.

**Q.** What about the cytotoxicity at 0.1 µM ([2]; Homo sapiens, HT-1080, 48 h, read-out: decrease in cell viability, HT-1080, triptolide 5 ng/ml (13.5 nM), doxorubicin 100 nM, alone or combined, 48 hours) of the same molecule?
**A.** The cytotoxicity at 0.1 µM was 6.4%.

**Q.** And the “increase of transactivation of the Mdm2 reporter” value ([3]; MCF-7, doxorubicin 100 nM, by 16 h)?
**A.** The value was 15%.

**Q.** And the “increase in p53 protein” value (p53; HT1080, doxorubicin alone or plus triptolide)?
**A.** Its value is 4.9 fold.

**Q.** And the “increase in p21” value (p21; HT1080, doxorubicin)?
**A.** Its value is 14.5 fold.

**Q.** And the “effect on p21 expression” value (p21)?
**A.** Its value is “did not affect”.

**Q.** What about the “cells in G2/M” value (HT1080 cells; HT1080, doxorubicin 100 nM alone or with triptolide 20 ng/ml, 11% without treatment) of the same molecule?
**A.** Its value is 49.8%.
